Measured values from patent US11008323B2, “Substituted tricyclic 1,4-benzodiazepinone derivatives as allosteric modulators of group II metabotropic glutamate receptors” (Domain Therapeutics, priority 2015, dated 2021).

Each compound was assayed against T1, human mGluR3 (hmGluR3) (Homo sapiens, UniProt Q14832) (assay: Human mGluR3 positive allosteric modulator evaluation using Ca++ functional assay). Conditions: hmGluR3 transiently over-expressed in HEK-293 cells; stimulated by EC50 glutamate concentration; intracellular Ca2+ (Fluo4AM, FLIPR Tetra).
T1 construct: expressed in transfected cells; host or cells: HEK-293 cells, transient co-transfection by electroporation
T1 sequence (Q14832 23-879): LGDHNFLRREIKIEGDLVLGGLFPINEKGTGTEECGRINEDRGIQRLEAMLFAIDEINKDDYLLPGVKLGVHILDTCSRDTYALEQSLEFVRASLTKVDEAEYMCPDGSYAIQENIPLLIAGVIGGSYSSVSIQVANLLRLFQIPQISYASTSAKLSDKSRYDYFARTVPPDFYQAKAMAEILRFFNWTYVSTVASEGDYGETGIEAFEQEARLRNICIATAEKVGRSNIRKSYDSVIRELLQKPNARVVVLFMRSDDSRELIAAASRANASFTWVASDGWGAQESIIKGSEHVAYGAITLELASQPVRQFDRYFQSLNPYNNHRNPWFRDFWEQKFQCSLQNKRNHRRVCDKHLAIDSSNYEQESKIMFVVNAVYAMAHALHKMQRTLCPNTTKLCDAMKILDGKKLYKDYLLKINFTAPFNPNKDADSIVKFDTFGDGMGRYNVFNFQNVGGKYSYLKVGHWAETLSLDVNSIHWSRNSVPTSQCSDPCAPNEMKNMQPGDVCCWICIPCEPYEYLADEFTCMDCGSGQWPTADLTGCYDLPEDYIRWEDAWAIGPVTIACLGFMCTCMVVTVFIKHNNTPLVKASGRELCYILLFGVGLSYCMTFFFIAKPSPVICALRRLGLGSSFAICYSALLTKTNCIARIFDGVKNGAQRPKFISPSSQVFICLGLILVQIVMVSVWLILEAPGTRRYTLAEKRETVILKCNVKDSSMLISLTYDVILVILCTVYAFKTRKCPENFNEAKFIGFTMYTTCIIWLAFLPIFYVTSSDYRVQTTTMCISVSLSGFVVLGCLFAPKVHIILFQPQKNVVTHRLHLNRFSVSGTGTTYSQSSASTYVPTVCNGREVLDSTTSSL
Assay type: cell-based
Outline: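 HEK-293 cells transiently co-expressing hmGluR3, a chimeric G protein and two glutamate transporters; Fluo4 calcium read on FLIPR. Compound alone for 10 min (agonist), then EC50 glutamate for 3 min (PAM); 20-point curves gave EC50, duplicate, two independent runs.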

Row | SMILES | EC50
1 | CN1C(=O)c2cc(-c3ccccc3)cn2-c2cc(-c3cccnn3)ccc2C12CC2 [Example 109, 5-Methyl-2-phenyl-9-pyridazin-3-yl-spiro[benzo[f]pyrrolo[1,2-a][1,4]diazepine-6,1′-cyclopropan]-4(5H)-one] | 100 to 1000 nM
2 | Cc1ncccc1-c1ccc2c(c1)-n1cc(Cl)cc1C(=O)N(C)C21CC1 [Example 82, 9-(2-Methyl-pyridin-3-yl)-2-chloro-5-methyl-spiro[benzo[f]pyrrolo[1,2-a][1,4]diazepine-6,1′-cyclopropan]-4(5H)-one] | < 100 nM
3 | Cc1ncncc1-c1ccc2c(c1)-n1cccc1C(=O)N(C)C21CC1 [Example 59, 5-Methyl-9-(4-methyl-pyrimidin-5-yl)-spiro[benzo[f]pyrrolo[1,2-a][1,4]diazepine-6,1′-cyclopropan]-4(5H)-one] | > 1000 nM
4 | Cc1ncccc1-c1ccc2c(c1)-n1nccc1C(=O)N(C)C2 [Example 217, 5-Methyl-9-(2-methylpyridin-3-yl)-5,6-dihydro-4H-benzo[f]pyrazolo[1,5-a][1,4]diazepin-4-one] | > 1000 nM
5 | Cc1ncccc1-c1ccc2c(c1)-n1cc(-c3ccc(F)cc3)cc1C(=O)N(C)C21CC1 [Example 150] | 100 to 1000 nM
6 | Cc1cc(-c2ccc3c(c2)-n2cc(-c4ccccc4)cc2C(=O)N(C)C32CC2)ccn1 [Example 105, 5-Methyl-2-phenyl-9-(2-methyl-pyridin-4-yl)-spiro[benzo[f]pyrrolo[1,2-a][1,4]diazepine-6,1′-cyclopropan]-4(5H)-one] | 100 to 1000 nM
7 | CN1C(=O)c2cc(-c3nnco3)cn2-c2cc(Br)ccc2C12CC2 [Example 189] | > 1000 nM
8 | Cc1ccc(-c2ccc3c(c2)-n2cc(-c4ccccc4)cc2C(=O)N(C)C32CC2)cn1 [Example 103, 5-Methyl-2-phenyl-9-(6-methyl-pyridin-3-yl)-spiro[benzo[f]pyrrolo[1,2-a][1,4]diazepine-6,1′-cyclopropan]-4(5H)-one] | < 100 nM
9 | CN1C(=O)c2cccn2-c2cc(-c3cc(F)ccn3)ccc2C12CC2 [Example 57, 5-Methyl-9-(4-fluoropyridin-2-yl)-spiro[benzo[f]pyrrolo[1,2-a][1,4]diazepine-6,1′-cyclopropan]-4(5H)-one] | 100 to 1000 nM
10 | Cc1ncccc1-c1ccc2c(c1)-n1cc(-c3cccnc3)cc1C(=O)N(C)C21CC1 [Example 143] | < 100 nM
11 | Cc1ncccc1-c1ccc2c(c1)-n1cc(C3CC3)cc1C(=O)N(C)C21CC1 [Example 155] | < 100 nM
12 | Cc1ccncc1-c1ccc2c(c1)-n1cc(-c3ccccc3)cc1C(=O)N(C)C21CC1 [Example 101, 5-Methyl-2-phenyl-9-(4-methyl-pyridin-3-yl)-spiro[benzo[f]pyrrolo[1,2-a][1,4]diazepine-6,1′-cyclopropan]-4(5H)-one] | 100 to 1000 nM
13 | CCc1cc2n(c1)-c1cc(-c3cccnc3C)ccc1C1(CC1)N(C)C2=O [Example 197] | < 100 nM
14 | CN1C(=O)c2cccn2-c2cc(Br)cc(F)c2C12CC2 [Example 7, 9-Bromo-7-fluoro-5-methyl-spiro[benzo[f]pyrrolo[1,2-a][1,4]diazepine-6,1′-cyclopropan]-4(5H)-one] | > 1000 nM
15 | CN1C(=O)c2cccn2-c2cc(C3=CCNCC3)ccc2C12CC2 [Example 46, 5-Methyl-9-(1,2,3,6-tetrahydro-pyridin-4-yl)-spiro[benzo[f]pyrrolo[1,2-a][1,4]diazepine-6,1′-cyclopropan]-4(5H)-one] | > 1000 nM
16 | Cc1ncccc1-c1ccc2c(c1)-n1cc(-c3ccccc3)nc1C(=O)N(C)C21CC1 [Example 140, 9-(2-Methyl-pyridin-3-yl)-5-methyl-2-phenyl-spiro[benzo[f]imidazo[1,2-a][1,4]diazepine-6,1′-cyclopropan]-4(5H)-one] | < 100 nM
17 | Cc1ccc(-c2ccc3c(c2)-n2cc(-c4ccccc4)cc2C(=O)N(C)C32CC2)c(C)n1 [Example 107, 5-Methyl-2-phenyl-9-(2,6-dimethyl-pyridin-3-yl)-spiro[benzo[f]pyrrolo[1,2-a][1,4]diazepine-6,1′-cyclopropan]-4(5H)-one] | < 100 nM
